Laboratory results: patent publication US8741889B2, “Method of treating non-small cell lung cancer and colon cancer with gamma-secretase inhibitor” (Hoffmann-La Roche Inc, priority 2008, dated 2014)

Test system: A549 non-small cell lung carcinoma (NSCLC) xenografts
Test: Antitumor efficacy in A549 NSCLC xenografts in nude mice
Type: in vivo
Details: for % TGI: day 47
Procedure: In the current study, compound (1) was evaluated for its antitumor activity against the A549 NSCLC human xenograft model in nude mice. A549 cells appear to have a functional Notch signaling pathway since receptors, ligands, and downstream effectors such as Hes-1 and Hey-1 are expressed (as assessed by PCR-based gene expression profiling). A549 cells have at least one identifiable defect in the Notch pathway; the negative regulator Numb is expressed only at low levels. In vitro, nM concentrations of compound (1) induce a less transformed phenotype in A549 cells and loss of growth in soft agar […], which is consistent with mechanistic inhibition of Notch activation. […] Female nude mice (10/group), obtained from Charles River Laboratories (Wilmington, Mass.) were used when they were approximately 13-14 weeks old and weighed approximately 23-25 grams. The health of all animals was determined daily by gross observation of experimental animals and by the analyses of blood samples of sentinel animals that were housed on the shared shelf racks. All animals were allowed to acclimate and recover from any shipping related stress for a minimum of 72 hours prior to experimental use. Autoclaved water and irradiated food [5058-ms Pico chow (mouse) Purina, Richmond, Ind.] were provided ad libitum, and the animals were maintained on a 12 hour light and dark cycle. Cages, bedding and water bottles were autoclaved before use and were changed weekly. A549 human NSCLC cells were purchased from ATCC (Manassas, Va.) and cultured in RPMI 1640 culture medium with 10% (v/v) FBS. Cells were grown and harvested by members of the Oncology In Vivo Section (OIVS). Each mouse received 7.5×10^6 cells in 0.2 ml PBS (Phosphate Buffered Saline) implanted subcutaneously in the right hind flank by members of OIVS on Aug. 17, 2006. […] Compound (1) was mixed vigorously prior to withdrawal and administration. Formulated compound and vehicle were prepared weekly and stored at 4° C., as set out below. […] Treatment began on Sep. 12, 2006 (day 26 post tumor cell implant). […] 19, 2006 (day 33 post tumor cell implant). […] 3, 2006 (day 47 post tumor cell implant). Efficacy data was graphically represented as the mean tumor volume+standard error of the mean (SEM). Tumor volumes of treated groups were presented as percentages of tumor volumes of the control groups (% T/C), using the formula: 100×((T−T0)/(C−C0)), where T represented mean tumor volume of a treated group on a specific day during the experiment, T0 represented mean tumor volume of the same treated group on the first day of treatment; C represented mean tumor volume of a control group on the specific day during the experiment, and C0 represented mean tumor volume of the same treated group on the first day of treatment. Tumor volume (in cubic millimeters) was calculated using the ellipsoid formula: (D×(d2))/2 where ‘D’ represents the large diameter of the tumor, and ‘d’ represents the small diameter. In some cases, tumor regression and/or percent change in tumor volume was calculated using the formula: ((T−T0)/T0)×100 where ‘T’ represents mean tumor volume of the treated group at a particular day, and ‘T0’ represents mean tumor volume of the same treated group at initiation of treatment. Statistical analysis was determined by the rank sum test and One Way Anova and a post-hoc Bonferroni t-test (SigmaStat, version 2.0, Jandel Scientific, San Francisco, Calif.). Differences between groups were considered to be significant when the probability value (p) was ≦0.05. […] Percent tumor growth inhibition was calculated on day 47, which was the final day of treatment for the 21-day treated groups, 7 days post-treatment for 14-day treated groups (14+/7−), or 14-days post treatment for the 7-day treated group (7+/14−).

CC(C)(C(=O)NCC(F)(F)C(F)(F)F)C(=O)N[C@@H]1C(=O)Nc2ccccc2-c2ccccc21 [Compound (1), 2,2-Dimethyl-N—((S)-6-oxo-6,7-dihydro-5H-dibenzo[b,d]azepin-7-yl)-N′-(2,2,3,3,3-pentafluoro-propyl)-malonamide] was tested, and the “% TGI” value (3 mg/kg po bid × 21 days) was 83%, the “% TGI” value (3 mg/kg po bid, 14+/7− schedule) was 83% and the “% TGI” value (3 mg/kg po qd × 21 days) was 76%. The “% TGI” value (3 mg/kg po qd, 14+/7− schedule) was 66%, the “% TGI” value (10 mg/kg po bid × 21 days) was 72% and the “% TGI” value (10 mg/kg po bid, 14+/7− schedule) was 80%. The “% TGI” value (10 mg/kg po qd × 21 days) was 70%, the “% TGI” value (10 mg/kg po qd, 14+/7− schedule) was 77% and the “% TGI” value (30 mg/kg po bid, 14+/7− schedule) was 79%. The “% TGI” value (30 mg/kg po qd × 21 days) was 66%, the “% TGI” value (30 mg/kg po qd, 14+/7− schedule) was 79% and the “inhibition of tumor growth sustained post treatment” value (60 mg/kg bid, 7+/14− schedule (to day 67)) was “up to 34 days”. The “% TGI” value (60 mg/kg po bid, 7+/14− schedule) was 91%, the “% TGI” value (60 mg/kg po qd, 14+/7− schedule) was 88% and the “% TGIs (range)” value (3, 10 or 30 mg/kg once or twice daily for 14 (14+/7−) or 21 days) was 66-83%. The “inhibition of tumor growth sustained post treatment” value (all 21-day treated groups (to day 63)) was “up to 16 days”, the “growth suppression lasting post treatment” value (all qd or bid groups, 14+/7− schedule (to day 63)) was “up to 23 days” and the “tumor growth inhibition (range)” value (seven or fourteen days of BID treatment out of a 21 day cycle) was 79-91%.
